Where only a bound is given, the exact number is not on record here.

The conditions of data set [1]: in vivo; cited from earlier work.
For data set [2] the following is noted: cited from earlier work.
Data set [3] concerns the target T1, Bcl-2 (Homo sapiens, UniProt P10415).
T1 construct: purchased R&D Systems, Inc
Kind of data set: Bcl-2 competition binding (fluorescence polarization) assay. The conditions noted are these: for IC50: fluorescence polarization, 3 hours incubation at room temperature, read-out: BCL2 IC50; for BCL2 inhibitor potency in words: statement on the BCL2 IC50 table. As to the method: Biological Example 1: Bcl-2 Competition Binding (Fluorescence Polarization) Assay
This binding assay was performed in 96-well plate and with each assay contained 15 and 30 nM of labeled peptide and purified Bcl-2 protein (purchased from R&D Systems, Inc). The assay buffer contained 20 mM Hepes (pH 7.0), 50 mM KCl, 5 mM MgCl2, 20 mM Na2MoO4, 0.1 mg/ml Bovine Gamma Globulin and 0.01% NP40. Compounds were diluted in DMSO and added to the final assay with concentration range from 20 μM to 2 nM. The polarization degree (mP) value was determined by BioTek Synergy II with background subtraction after 3 hours of incubation at room temperature. IC50 was calculated using Prism software with sigmoidal dose-response curve fitting. ABT-737 was used as reference compound. Such assays, carried out with a range of doses of test compounds, allowed the determination of an approximate IC50 value.
For orientation: In fluorescence polarisation assays a small probe gives low polarisation when free and higher when bound to something large.

Data set [4] addresses Mcl-1 (Homo sapiens, UniProt Q07820). The note with it: cited from earlier work.
In data set [5] the test system is RS4; 11 cells. The note with it: cited from earlier work.
For data set [6], the system named is CLL. The conditions noted are these: read-out: average EC50, apoptosis in CLL; cited from earlier work.
Data set [7] relates to RS4; 11 xenografts. The note with it: single dose of 100 mg/kg; cited from earlier work.
The test system of data set [8] is xenograft (DoHH2, Granta-519). The conditions noted are these: single agent or in combination with Bendamustine and other agents; cited from earlier work.
In data set [9] the target is T2, Bcl-w (Homo sapiens, UniProt Q92843).
T2 sequence (Q92843 1-193): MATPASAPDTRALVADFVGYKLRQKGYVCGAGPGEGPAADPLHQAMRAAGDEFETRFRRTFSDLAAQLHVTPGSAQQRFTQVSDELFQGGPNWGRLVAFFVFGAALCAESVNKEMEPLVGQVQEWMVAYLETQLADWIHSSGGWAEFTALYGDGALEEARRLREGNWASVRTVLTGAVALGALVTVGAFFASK
The conditions noted are these: cited from earlier work.

Data set [10] concerns SCLC H146 cell line. The conditions noted are these: read-out: IC50 against SCLC H146 cell line; cited from earlier work.
Data set [11] concerns H345 xenograft. The note with it: 100 mg/kg/day, H345 xenograft model; cited from earlier work.
The subject of data set [12] is xenograft models of small-cell lung cancer and acute lymphoblastic leukemia. The note with it: oral administration, alone; cited from earlier work.
For data set [13], the system named is circulating platelets. The note with it: clinical trial, patients; cited from earlier work.

T1 sequence (P10415 whole entry): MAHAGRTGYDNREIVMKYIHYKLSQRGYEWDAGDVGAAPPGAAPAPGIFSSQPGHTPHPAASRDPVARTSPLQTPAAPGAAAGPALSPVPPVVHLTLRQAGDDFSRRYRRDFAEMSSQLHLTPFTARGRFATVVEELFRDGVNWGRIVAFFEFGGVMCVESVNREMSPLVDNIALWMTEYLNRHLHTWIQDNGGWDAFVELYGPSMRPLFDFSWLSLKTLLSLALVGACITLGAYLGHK
Chain of Mcl-1 (Q07820 whole entry, species assumed): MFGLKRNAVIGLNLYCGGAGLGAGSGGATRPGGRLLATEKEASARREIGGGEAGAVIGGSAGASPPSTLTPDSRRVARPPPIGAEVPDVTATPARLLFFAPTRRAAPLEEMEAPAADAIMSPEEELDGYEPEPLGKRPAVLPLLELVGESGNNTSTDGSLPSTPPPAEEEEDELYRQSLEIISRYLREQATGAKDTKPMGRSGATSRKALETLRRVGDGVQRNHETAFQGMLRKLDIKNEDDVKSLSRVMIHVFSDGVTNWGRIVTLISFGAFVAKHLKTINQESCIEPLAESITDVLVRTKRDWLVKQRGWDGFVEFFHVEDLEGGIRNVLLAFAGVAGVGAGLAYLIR

`CN(C)CC[C@H](CSc1ccccc1)Nc1ccc(S(=O)(=O)NC(=O)c2ccc(N3CCN(Cc4ccccc4-c4ccc(Cl)cc4)CC3)cc2)cc1[N+](=O)[O-]` [ABT-737]: the oral bioavailability result in data set [1] is “not orally bioavailable”. The aqueous solubility result in [2] is reported as “low aqueous solubility”.
For `CC1(C)CCC(CN2CCN(c3ccc(C(=O)NS(=O)(=O)c4ccc(NCC5CCOCC5)c([N+](=O)[O-])c4)c(P(C)(=O)c4cnc5[nH]ccc5c4)c3)CC2)=C(c2ccc(Cl)cc2)C1` (centres unmarked) [Example 1, 4-(4-[[2-(4-chlorophenyl)-4,4-dimethylcyclohex-1-en-1-yl]methyl]piperazin-1-yl)-2-[methyl(1H-pyrrolo[2,3-b]pyridin-5-yl)phosphoroso]-N-[3-nitro-4-[(oxan-4-ylmethyl)amino]benzenesulfonyl]benzamide], in data set [3], the IC50 – broadly, the point on the concentration scale where inhibition reaches its midpoint – was determined as 0.45 nM and the “BCL2 inhibitor potency in words” value is “highly potent BCL2 inhibitor”.
The like results for `C=C(c1cnc2[nH]ccc2c1)c1cc(N2CCN(CC3=C(c4ccc(Cl)cc4)CC(C)(C)CC3)CC2)ccc1C(=O)NS(=O)(=O)c1ccc(NC[C@H]2COCCO2)c([N+](=O)[O-])c1` [Example 3, (S)—N-((4-(((1,4-dioxan-2-yl)methyl)amino)-3-nitrophenyl)sulfonyl)-2-(1-(1H-pyrrolo[2,3-b]pyridin-5-yl)vinyl)-4-(4-((4′-chloro-5,5-dimethyl-3,4,5,6-tetrahydro-[1,1′-biphenyl]-2-yl)methyl)piperazin-1-yl)benzamide] were, in that order, 1.3 nM and “highly potent BCL2 inhibitor”.
As for `CC1(C)CCC(CN2CCN(c3ccc4c(c3)C(c3cnc5[nH]ccc5c3)CN(S(=O)(=O)c3ccc(NC[C@H]5COCCO5)c([N+](=O)[O-])c3)C4=O)CC2)=C(c2ccc(Cl)cc2)C1` (stereo partly drawn) [Example 2, 6-(4-[[2-(4-chlorophenyl)-4,4-dimethylcyclohex-1-en-1-yl]methyl]piperazin-1-yl)-2-(4-[[(2S)-1,4-dioxan-2-ylmethyl]amino]-3-nitrobenzenesulfonyl)-4-[1H-pyrrolo[2,3-b]pyridin-5-yl]-3,4-dihydroisoquinolin-1-one], the IC50 in data set [3] is 0.8 nM.
Consider `CC1(C)CCC(CN2CCN(c3ccc(C(=O)NS(=O)(=O)c4ccc(NCC5CCOCC5)c([N+](=O)[O-])c4)c(Oc4cnc5[nH]ccc5c4)c3)CC2)=C(c2ccc(Cl)cc2)C1` [ABT-199], for which the “activity to Mcl-1” value in data set [4] is on record as “no activity”. Further, the EC50 (commonly the concentration needed to bring the measured effect to its halfway point) in data set [5] is 8 nM. The EC50 in data set [6] is 3 nM. Moreover, in data set [7], the “maximal tumor growth inhibition” value is listed as 95% and the tumor growth delay is recorded as 152%. Besides, the xenograft growth entry in data set [8] is “inhibits xenograft growth”.
With `CC1(C)CCC(c2ccc(Cl)cc2)=C(CN2CCN(c3ccc(C(=O)NS(=O)(=O)c4ccc(N[C@H](CCN5CCOCC5)CSc5ccccc5)c(S(=O)(=O)C(F)(F)F)c4)cc3)CC2)C1` [ABT-263], the Ki (usually the equilibrium dissociation constant of an inhibitor or competing ligand from its target) in [9] is at most 1 nM. Besides, in data set [10], the 50% inhibitory concentration (IC50) is 110 nM. For the same molecule, in data set [11], the TGI (usually the reduction of tumour growth relative to the control group) was 80% and the “treated tumors indicating at least a 50% reduction in tumor volume” value is 20%. In addition, the tumor response entry in [12] is “complete tumor regressions”. Further, the “effect on circulating platelets” value in data set [13] is listed as “rapid, concentration-dependent decrease in the number of circulating platelets”. Also, the oral bioavailability result in data set [1] is “orally bioavailable”.
